{"source": "paper PMC10061639", "about": "(ACS Omega, 2023)", "key": {"[1]": {"experiment": "Experimental saturated solubility of ENO in excipients", "format": "physicochemical", "settings": "thermodynamic from solid"}, "[2]": {"settings": "cited from earlier work"}, "[3]": {"experiment": "Hansen solubility parameters estimated with HSPiP program", "settings": "HSP parameters of ENE5 based on composition"}, "[4]": {"settings": "cited from earlier work", "remark": "listed apart in the source"}}, "data": [{"smiles": "CCn1cc(C(=O)O)c(=O)c2cc(F)c(N3CCNCC3)nc21", "note": "[ENO, Enoxacin]", "values": [{"measurement": "solubility at 72 h", "setting": "[1]; C90, 40 °C", "value": 2800, "unit": "µg/mL"}, {"measurement": "solubility at 72 h", "setting": "[1]; Miglyol 812N, 40 °C, oil or lipid", "value": 5400, "unit": "µg/mL"}, {"measurement": "solubility at 72 h", "setting": "[1]; NMP (N-methyl-2-pyrrolidone), 40 °C", "value": 6700, "unit": "µg/mL"}, {"measurement": "solubility at 72 h", "setting": "[1]; Tween 80, 40 °C", "value": 1500, "unit": "µg/mL"}, {"measurement": "aqueous solubility", "setting": "[2]; an experimental value", "value": 290, "unit": "µg/mL"}, {"measurement": "pKa", "setting": "[2]", "value": 5.5}]}, {"smiles": "CN1CCCC1=O", "note": "[NMP, N-methyl-2-pyrrolidone]", "values": [{"measurement": "δd, share of the component in ENE5 based on composition", "setting": "[3]", "value": 8.1}, {"measurement": "δh, share of the component in ENE5 based on composition", "setting": "[3]", "value": 3.33}, {"measurement": "δp, share of the component in ENE5 based on composition", "setting": "[3]", "value": 4.46}]}, {"smiles": "CCOCCOCCO", "note": "[Transcutol-HP]", "values": [{"measurement": "HLB", "setting": "[4]", "value": 14.5}]}, {"smiles": "CCCCCCCC/C=C\\CCCCCCCC(=O)OCCOCC(OCCO)C1OCC(OCCO)C1OCCO", "note": "(stereo not shown) [Tween 80]", "values": [{"measurement": "δd, share of the component in ENE5 based on composition", "setting": "[3]", "value": 2.52}, {"measurement": "δh, share of the component in ENE5 based on composition", "setting": "[3]", "value": 1.425}, {"measurement": "δp, share of the component in ENE5 based on composition", "setting": "[3]", "value": 0.975}]}]}
